Data published in patent publication US20080200519A1, “TETRAHYDRONAPHTHALENYLAMIDES, A PROCESS FOR THEIR PRODUCTION AND THEIR USE AS ANTI-INFLAMMATORY AGENTS” (priority 2007, published 2008).

Experiments:
androgen receptor (AR) = molecular target: T1, androgen receptor (AR) (Homo sapiens, UniProt P10275); test: binding to recombinantly produced androgen receptor
T1 construct: made in house
T1 sequence (P10275 1-920): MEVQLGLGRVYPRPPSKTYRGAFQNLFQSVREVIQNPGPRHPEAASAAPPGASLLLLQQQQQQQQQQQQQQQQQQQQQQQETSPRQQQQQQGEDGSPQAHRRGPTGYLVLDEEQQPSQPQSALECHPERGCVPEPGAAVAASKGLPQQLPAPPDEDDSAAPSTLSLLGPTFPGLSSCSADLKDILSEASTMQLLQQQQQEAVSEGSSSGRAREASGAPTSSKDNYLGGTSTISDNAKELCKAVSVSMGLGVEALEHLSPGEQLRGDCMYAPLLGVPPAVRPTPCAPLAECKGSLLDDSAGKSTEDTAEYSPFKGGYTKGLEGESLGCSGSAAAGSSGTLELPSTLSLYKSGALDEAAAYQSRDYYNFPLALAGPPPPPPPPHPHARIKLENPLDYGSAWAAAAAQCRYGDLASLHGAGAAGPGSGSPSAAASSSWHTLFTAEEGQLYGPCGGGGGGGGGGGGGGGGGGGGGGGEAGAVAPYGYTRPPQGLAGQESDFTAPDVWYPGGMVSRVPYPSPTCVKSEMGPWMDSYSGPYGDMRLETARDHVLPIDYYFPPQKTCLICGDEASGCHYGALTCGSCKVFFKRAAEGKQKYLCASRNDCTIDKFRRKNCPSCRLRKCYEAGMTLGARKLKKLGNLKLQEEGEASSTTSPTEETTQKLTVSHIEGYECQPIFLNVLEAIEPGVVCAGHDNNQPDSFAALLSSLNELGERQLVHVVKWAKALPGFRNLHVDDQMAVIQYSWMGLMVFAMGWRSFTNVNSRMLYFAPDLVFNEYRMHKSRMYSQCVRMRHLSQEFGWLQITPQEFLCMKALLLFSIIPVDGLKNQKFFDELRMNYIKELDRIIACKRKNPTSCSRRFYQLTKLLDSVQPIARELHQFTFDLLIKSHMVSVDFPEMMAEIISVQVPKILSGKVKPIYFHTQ
Text: (§1) The binding of the substances to the glucocorticoid receptor (GR) and other steroid hormone receptors (mineral corticoid receptor (MR), progesterone receptor (PR) and androgen receptor (AR)) is examined with the aid of recombinantly produced receptors. Cytosol preparations of Sf9 cells, which had been infected with recombinant baculoviruses, which code for the GR, are used for the binding studies. In comparison to reference substance [^3H]-dexamethasone, the substances show a high to very high affinity to GR.

ER = test: steroid receptor binding, ER
[1] = molecular target: T2, progesterone receptor (PR) (Homo sapiens, UniProt P06401); test: binding to recombinantly produced progesterone receptor
T2 construct: made in house
T2 sequence (P06401 1-933): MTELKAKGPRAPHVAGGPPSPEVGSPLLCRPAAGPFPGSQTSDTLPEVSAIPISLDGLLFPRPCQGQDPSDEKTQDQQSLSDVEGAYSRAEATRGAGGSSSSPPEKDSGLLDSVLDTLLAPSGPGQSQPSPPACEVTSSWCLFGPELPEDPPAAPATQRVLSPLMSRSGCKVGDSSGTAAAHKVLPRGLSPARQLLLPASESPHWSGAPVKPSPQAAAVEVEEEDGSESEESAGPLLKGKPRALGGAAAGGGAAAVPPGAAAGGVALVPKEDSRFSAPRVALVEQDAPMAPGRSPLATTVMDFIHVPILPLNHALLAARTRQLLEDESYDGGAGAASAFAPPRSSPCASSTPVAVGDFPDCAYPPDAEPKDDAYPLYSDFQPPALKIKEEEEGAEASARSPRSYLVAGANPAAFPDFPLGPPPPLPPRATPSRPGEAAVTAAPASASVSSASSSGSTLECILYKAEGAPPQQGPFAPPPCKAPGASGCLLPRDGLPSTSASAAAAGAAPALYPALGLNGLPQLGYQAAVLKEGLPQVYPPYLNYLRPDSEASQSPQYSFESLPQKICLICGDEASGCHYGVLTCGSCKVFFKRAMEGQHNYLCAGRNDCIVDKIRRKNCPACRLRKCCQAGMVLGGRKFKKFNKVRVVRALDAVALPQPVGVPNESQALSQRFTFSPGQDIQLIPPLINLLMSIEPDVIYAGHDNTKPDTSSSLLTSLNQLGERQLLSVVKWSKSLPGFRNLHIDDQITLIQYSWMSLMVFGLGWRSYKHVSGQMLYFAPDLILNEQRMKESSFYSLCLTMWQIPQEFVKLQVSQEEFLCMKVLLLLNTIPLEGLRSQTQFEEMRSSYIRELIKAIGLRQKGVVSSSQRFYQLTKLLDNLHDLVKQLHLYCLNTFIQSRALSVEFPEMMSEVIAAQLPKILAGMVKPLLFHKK
Text: as §1

[2] = system: secretion of cytokine IL-8 in human monocyte cell line THP-1; test: inhibition of LPS-triggered IL-8 secretion in THP-1 cells (ELISA); format: cell-based
Procedure: The concentration of the cytokines was determined in the supernatant by means of commercially available ELISA kits.

[3] = molecular target: T3, glucocorticoid receptor (GR) (Homo sapiens, UniProt P04150); test: binding to recombinantly produced glucocorticoid receptor, cytosol preparations of Sf9 cells, [3H]-dexamethasone as reference; details: recombinant GR
T3 construct: made in house; host or cells: Sf9 cells infected with recombinant baculovirus (cytosol preparation)
T3 sequence (P04150 1-777): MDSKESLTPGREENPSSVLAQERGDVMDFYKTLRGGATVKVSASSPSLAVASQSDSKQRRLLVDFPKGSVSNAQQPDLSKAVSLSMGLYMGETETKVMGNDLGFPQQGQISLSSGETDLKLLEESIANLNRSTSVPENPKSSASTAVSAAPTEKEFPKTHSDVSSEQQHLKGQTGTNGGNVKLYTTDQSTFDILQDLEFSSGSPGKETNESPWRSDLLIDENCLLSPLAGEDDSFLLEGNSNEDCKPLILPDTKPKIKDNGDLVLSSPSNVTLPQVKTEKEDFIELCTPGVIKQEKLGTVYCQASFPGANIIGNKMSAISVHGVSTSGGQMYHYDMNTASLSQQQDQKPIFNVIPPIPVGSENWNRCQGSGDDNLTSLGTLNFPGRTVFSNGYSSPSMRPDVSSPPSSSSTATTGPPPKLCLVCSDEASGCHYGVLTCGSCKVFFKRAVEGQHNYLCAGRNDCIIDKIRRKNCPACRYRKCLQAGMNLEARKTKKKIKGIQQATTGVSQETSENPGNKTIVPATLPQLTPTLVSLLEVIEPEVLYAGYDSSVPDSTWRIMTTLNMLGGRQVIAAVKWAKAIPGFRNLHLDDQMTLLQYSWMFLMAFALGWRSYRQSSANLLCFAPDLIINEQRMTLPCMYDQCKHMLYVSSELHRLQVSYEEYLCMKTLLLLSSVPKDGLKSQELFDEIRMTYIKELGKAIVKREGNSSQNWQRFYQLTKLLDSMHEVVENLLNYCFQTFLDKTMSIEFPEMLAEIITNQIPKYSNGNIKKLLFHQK
Text: as §1

[4] = molecular target: T4, mineral corticoid receptor (MR) (Homo sapiens, UniProt P08235); test: binding to recombinantly produced mineral corticoid receptor
T4 construct: made in house
T4 sequence (P08235 1-984): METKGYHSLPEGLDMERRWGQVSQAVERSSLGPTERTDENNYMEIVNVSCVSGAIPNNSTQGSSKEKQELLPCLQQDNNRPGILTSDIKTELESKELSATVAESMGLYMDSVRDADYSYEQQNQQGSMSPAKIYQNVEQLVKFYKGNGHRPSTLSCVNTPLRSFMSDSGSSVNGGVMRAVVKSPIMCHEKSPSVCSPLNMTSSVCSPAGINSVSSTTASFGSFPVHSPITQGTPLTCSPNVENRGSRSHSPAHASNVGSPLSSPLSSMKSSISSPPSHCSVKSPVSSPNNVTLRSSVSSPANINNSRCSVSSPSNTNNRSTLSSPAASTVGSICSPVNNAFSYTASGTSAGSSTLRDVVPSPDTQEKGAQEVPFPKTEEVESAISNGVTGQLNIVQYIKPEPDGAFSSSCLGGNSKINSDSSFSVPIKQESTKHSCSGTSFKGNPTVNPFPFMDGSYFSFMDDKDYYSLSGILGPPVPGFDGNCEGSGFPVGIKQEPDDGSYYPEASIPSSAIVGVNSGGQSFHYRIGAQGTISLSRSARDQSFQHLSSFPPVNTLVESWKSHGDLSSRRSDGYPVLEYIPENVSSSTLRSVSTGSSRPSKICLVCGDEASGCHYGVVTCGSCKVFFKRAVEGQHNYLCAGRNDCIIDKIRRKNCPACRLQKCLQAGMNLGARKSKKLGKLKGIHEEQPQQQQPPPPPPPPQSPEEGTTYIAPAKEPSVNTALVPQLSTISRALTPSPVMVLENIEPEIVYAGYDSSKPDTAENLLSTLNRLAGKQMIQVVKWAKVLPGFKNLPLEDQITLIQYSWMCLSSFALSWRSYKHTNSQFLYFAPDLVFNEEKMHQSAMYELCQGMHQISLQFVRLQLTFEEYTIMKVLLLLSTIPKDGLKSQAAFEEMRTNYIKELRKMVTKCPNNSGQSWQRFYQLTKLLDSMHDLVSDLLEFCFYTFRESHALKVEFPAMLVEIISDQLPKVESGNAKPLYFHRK
Text: as §1

- IC50 (androgen receptor (AR)): > 1000 nM
- IC50 (ER): > 1000 nM
- IC50 [1]: > 1000 nM
- IC50 ([2]; Homo sapiens, read-out: IC50(IL8)): 7.1 nM
- IC50 [3]: 6 nM
- IC50 [4]: > 1000 nM
SMILES: COc1c(F)ccc2c1C(C)(C)C[C@](O)(C(F)(F)F)[C@H]2NC(=O)c1cnn(-c2ccc(F)cc2F)c1N (relative stereo) [Example 3, 5-Amino-1-(2,4-difluorophenyl)-N-[(cis)-6-fluoro-1,2,3,4-tetrahydro-2-hydroxy-5-methoxy-4,4-dimethyl-2-(trifluoromethyl)naphthalene-1-yl]-1H-pyrazole-4-carboxamide]
- eff. relative to dexamethasone ([2]; IL-8 inhibition): 96%
